Measurements reported in US4992437A, “Thienodiazepine compounds and their pharmaceutical use” (Yoshitomi Pharmaceutical Industries, Ltd., priority 1987, dated 1991).
Like-named read-outs stand apart in the source and are kept apart here. Blank lines part the entries; values can stand above or below the molecule they belong to.

Legend:
CCK receptor (pancreas) = molecular target: T1, CCK receptor (pancreas) (Canis lupus familiaris, UniProt Q5D0K2); assay: CCK receptor-binding, pancreas (125I-CCK-8); set-up: species or system male mongrel adult dog
T1 construct: from tissue; host or cells: dog pancreas membranes (whole pancreas, homogenized and centrifuged)
T1 sequence (Q5D0K2 1-428): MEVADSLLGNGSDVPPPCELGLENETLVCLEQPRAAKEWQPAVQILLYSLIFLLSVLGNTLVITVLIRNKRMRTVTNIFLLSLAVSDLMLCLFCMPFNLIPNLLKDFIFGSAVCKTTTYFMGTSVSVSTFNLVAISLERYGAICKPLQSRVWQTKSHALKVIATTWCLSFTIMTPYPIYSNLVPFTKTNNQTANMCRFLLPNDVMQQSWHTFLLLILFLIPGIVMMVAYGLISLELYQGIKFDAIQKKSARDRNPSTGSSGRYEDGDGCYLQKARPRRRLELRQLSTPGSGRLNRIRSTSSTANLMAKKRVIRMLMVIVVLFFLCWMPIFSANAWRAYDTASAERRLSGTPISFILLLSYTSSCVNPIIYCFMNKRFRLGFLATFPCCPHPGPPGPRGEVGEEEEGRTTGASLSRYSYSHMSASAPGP
Experimental: The entire pancreas of a male mongrel adult dog was extracted and the fat tissues thereof were removed. The residual portion was homogenized in 50 mM tris hydrochloride (pH 7.5) (Blinkman·Polytron PT20). After the filtration with nylon cloth (120 mesh) followed by centrifugation (50,000×g, for 12 minutes), the obtained sediment was homogenized in a tris buffer solution in the same manner as mentioned above and the homogenate was centrifuged. The obtained sediment was suspended in a buffer solution for binding assay (5 mM magnesium chloride, chloride, 5 mM dithiothreitol, 2 mg/ml bovine serum albumin, 0.1 mg/ml bacitracin, and 50 mM tris hydrochloride, pH 7.2), containing 0.14 mg/ml trypsin-inhibitor (soy bean), and the suspension was used as the receptor source.

Acute toxicity test = type: in vivo; settings: oral; 6 male mice; observed for consecutive 5 days
Excerpt: The acute toxicity of the compounds of the present invention was studied with the use of 6 male mice.

CCK receptor (brain) = molecular target: T2, CCK receptor (brain); assay: CCK receptor-binding, brain (125I-CCK-8)
T2 construct: Brain; from tissue
T2 sequence (P32239 whole entry): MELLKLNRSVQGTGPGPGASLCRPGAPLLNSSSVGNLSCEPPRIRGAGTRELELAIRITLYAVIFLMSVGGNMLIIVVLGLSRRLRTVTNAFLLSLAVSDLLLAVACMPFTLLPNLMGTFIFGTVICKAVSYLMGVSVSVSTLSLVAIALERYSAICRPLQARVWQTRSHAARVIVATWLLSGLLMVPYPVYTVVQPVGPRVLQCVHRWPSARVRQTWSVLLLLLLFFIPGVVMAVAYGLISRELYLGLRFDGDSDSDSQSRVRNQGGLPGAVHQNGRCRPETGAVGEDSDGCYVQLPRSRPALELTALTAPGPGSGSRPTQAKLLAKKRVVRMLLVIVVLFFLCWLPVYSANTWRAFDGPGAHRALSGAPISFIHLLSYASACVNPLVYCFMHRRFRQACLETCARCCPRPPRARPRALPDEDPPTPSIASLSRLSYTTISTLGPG

CCK-8 = assay: Effects on gastric excreting capability (Gastric emptying test), CCK-8 challenge; type: in vivo, male ddY mice
Experimental: At 5 minutes' lapse thereafter, 0.1 ml of a 1.5% aqueous solution of methyl cellulose containing 0.05% phenolred (Sigma) was orally administered. After 15 minutes, the stomach was extracted and the gastric contents were mixed with a 10% aqueous solution of trichloroacetic acid. After the removal of the proteins, the residue was centrifuged at 3000 rpm for 10 minutes. To the supernatant was added a 1N solution of sodium hydroxide and the mixture was again centrifuged. Thereafter, OD560 value of the supernatant was measured by the spectrophotometer (Hitachi 200-10 type) to estimate the minimum effective dose (MED).

[1] = pancreas membranes of dog, 125I-CCK-8, 20° C., 30 minutes, read-out: CCK binding, IC50 Pancreas

Molecule: CCc1cc2c(s1)-n1c(C)nnc1C(NC(=O)c1cc3ccccc3[nH]1)N=C2c1ccccc1Cl (stereo not shown) [Compound A, 4-(2-Chlorophenyl)-2-ethyl-6-(2-indolecarboxamido)-9-methyl-6H-thieno[3,2-f][1,2,4]triazolo[4,3-a][1,4]diazepine]
IC50 (CCK receptor (pancreas)): 0.6 nM
acute toxicity (Acute toxicity test): low toxicity
IC50 (CCK receptor (brain)): 1.8 nM
minimal effective dose at 0.03 mg/kg (CCK-8; Mus musculus, po, 25 min; read-out: Gastric Emptying MED (minimum effective dose)): 0.3 to 1 mg/kg

Molecule: CN1C(=O)C(NC(=O)c2cc3ccccc3[nH]2)N=C(c2ccccc2)c2ccccc21 [Example L-364718, N-(2,3-Dihydro-1-methyl-2-oxo-5-phenyl-1H-1,4-benzodiazepin-3-yl)-1H-indole-2-carboxamide, reference compound]
minimal effective dose at 0.03 mg/kg (CCK-8; Mus musculus, po, 25 min, read-out: Gastric Emptying MED (minimum effective dose)): 0.1 to 0.3 mg/kg

IC50 (CCK receptor (pancreas); [1]): 800 nM
Molecule: CCK-4

IC50 (CCK receptor (pancreas); [1]): 0.6 nM
Molecule: CCK-8: CCK-8 which consists of the 8 amino acids at the C terminus of CCK
